# According to US8809314B1, “Cephalosporin compound” (Cubist Pharmaceuticals, Inc., priority 2012, dated 2014):
# Legend:
# MRSA (n = 21) = assay: MIC90, expanded MIC panel (Table 4); format: cell-based; conditions: Staphylococcus aureus; 21 MRSA strains; read-out: MIC90 MRSA (n = 21)
# Experimental: (§1) II. […] MIC90 values were defined as the concentration required to inhibit growth of 90% of the strains tested. • C. SAR was performed using the following isolates: Sa399 (ATCC43300, MRSA), Sa1721 (NARSA NRS384, MRSA USA 300), Pa44 (ATCC27853), and 4 clinical isolates (Pa2241, Pa2086 (mucoid strain), Pa2694 and Pa2698). • D. The in vitro antibacterial activity of the compound of formula (I) was further evaluated in an expanded MRSA and Pa MIC panel (see Table 4 and FIG. 6).
# [1] = system: Pseudomonas aeruginosa (n = 100); assay: MIC90, expanded MIC panel (Table 4); format: cell-based; conditions: 100 Pa strains
# Experimental: as §1
# [2] = system: methicillin-resistant Staphylococcus aureus (MRSA); assay: MIC measured by the method of Example 3; format: cell-based; conditions: strain not named, read-out: MIC against methicillin-resistant Staphylococcus aureus (MRSA)
# Experimental: (§2) To prepare for MIC testing, individual colonies were isolated by streaking frozen glycerol material containing Staphylococcus or Pseudomonas spp. onto rich, non-selective, tryptic soy agar containing 5% sheep's blood (TSAB), and incubated at 37° C. for 18-24 hrs.
# (§3) On the day of testing, primary cultures were started by scraping off 5-10 colonies from the TSAB plates. The material was suspended in ˜5 mL of cation adjusted Mueller Hinton Broth (CAMHB) in 14 mL culture tubes and incubated at 37° C. with aeration (200 rpm) for ˜2 hrs until the OD600 was ≧0.1.
# (§4) Inoculum cultures were prepared by standardizing the primary cultures to OD600=0.1 and then adding 20 μL of the adjusted primary culture per 1 mL CAMHB for Pseudomonas and CAMHB plus 4% NaCl for MRSA so that the final inoculum density was ˜10^5 colony forming units per milliliter. Diluted inoculum cultures were used to inoculate 50 μL per well in 96 well broth microdilution assay plates. […]
# (§5) Plates were incubated for 18-20 hours at 37° C. with aeration (200 rpm). Following incubation, growth was confirmed visually placing plates over a viewing apparatus (stand with a mirror underneath) and then OD600 was measured using a SpectraMax 340PC384 plate reader (Molecular Devices, Sunnyvale, Calif.). Growth was defined as turbidity that could be detected with the naked eye or achieving minimum OD600 of 0.1. […]
# Pseudomonas aeruginosa = assay: MIC measured by the method of Example 3; format: cell-based; conditions: strain not named, read-out: MIC against Pseudomonas aeruginosa
# Experimental: as §2, §3, §4, §5
# [3] = system: ceftazidime-resistant Pseudomonas aeruginosa #2545; assay: Lung infection in neutropenic mice; format: in vivo; conditions: Pa #2545 lung infection, neutropenic mice
# Experimental: (§6) In vivo efficacy of (I) was evaluated against strains of MRSA, and ceftazidime-resistant Pa and Klebsiella pneumonia (Kpn) in mouse septicemia, thigh and lung infections. Septicemia: CD-1 mice received lethal bacterial inocula IP, followed by 2 doses of antibiotics SC at 1 and 6 hrs post-inoculation. Dose calculated to protect 50% of the mice (PD50) was derived based on probit analysis of percentage survival. Thigh and lung infections: Thighs or lungs of neutropenic mice were inoculated with MRSA or Pa. Two treatment doses were given SC at 1 and 6 hrs post-inoculation. Tissues were harvested at ˜24 hrs post-inoculation and bacterial burdens quantified.
# (§7) II. Methods • A. Animals: Six week-old, specific pathogen free, female CD-1 mice purchased from Charles River Laboratories (Wilmington, Mass.) were used for all studies after acclimation in Cubist animal facility. All animal procedures were approved by the Cubist Institutional Animal Care and Use Committee. • B. Bacteria and In Vitro Susceptibility Testing: MRSA #712, Pseudomonas aeruginosa #2245 and #2545, and Klebsiella pneumoniae #573 are clinical isolates; Pseudomonas aeruginosa #44 is an ATCC strain (ATCC#27853). MIC was determined in MHB by standard CLSI microdilution. Comparator Antibiotics Used in Animal Studies: Vancomycin hydrochloride USP was purchased from Hospira (Lake Forest, Ill.); ceftazidime hydrate from Sigma; Primaxin (imipenem and cilastatin) from Merck; ceftaroline was synthesized at a CRO. • D. Mouse Septicemia: Mice received lethal inocula of bacteria in 6% hog gastric mucin intraperitoneally (IP), followed by two treatment doses of antibiotics via subcutaneous (SC) administration at 1 and 6 hrs post-inoculation. The survival of animals was recorded daily for 7 days. The antibiotic dose calculated to protect 50% of the mice (PD50) was derived based on probit analysis of percentage survival. • E. Mouse Thigh and Lung Infections: Mice were rendered neutropenic by two IP injections of cyclophosphamide 4 days (150 mg/kg) and 1 day (100 mg/kg) before bacterial inoculation. Thigh or lung infection was induced by an intramuscular injection of 0.2 mL or intranasal inoculation of 0.1 mL inoculum preparation from an overnight bacterial culture into left thigh or nares. Tissues from one group of mice receiving no treatment (No Rx) were harvested at 1 hr for determination of baseline of bacterial burden. The remaining mice received two treatment doses of vehicles or antibiotics given SC at 1 and 6 hrs post-inoculation. Tissues from the treated mice were harvested at ˜24 hrs post-inoculation. Tissue bacterial burdens were quantified by serial dilution and spiral plating of homogenates.
# [4] = system: ceftazidime-susceptible Pseudomonas aeruginosa #2245; assay: Lung infection in neutropenic mice; format: in vivo; conditions: Pa #2245 lung infection, 3-log CFU reduction vs vehicle at 24 h
# Experimental: as §6, §7
# [5] = system: ceftazidime-susceptible Pseudomonas aeruginosa #44 (ATCC#27853); assay: Lung infection in neutropenic mice; format: in vivo; conditions: Pa #44 lung infection
# Experimental: as §6, §7
# Kpn #573 = assay: MIC in MHB by standard CLSI microdilution (Example 4); format: cell-based; conditions: Klebsiella pneumoniae; Kpn #573; read-out: MIC
# From the text: as §7
# Pa #2545 = assay: as above; format: cell-based; conditions: Pseudomonas aeruginosa
# From the text: as §7
# MRSA #712 = assay: as above; format: cell-based; conditions: Staphylococcus aureus; MRSA #712; read-out: MIC
# From the text: as §7
# Pa #44 (ATCC27853) = assay: as above; format: cell-based; conditions: Pseudomonas aeruginosa
# From the text: as §7
# [6] = 2 SC doses at 1 and 6 hrs, 24 h, vs vehicle
# [7] = 3-log CFU reduction vs vehicle at 24 h
structure (smiles),measurement,setting,value
CO/N=C(\C(=O)N[C@@H]1C(=O)N2C(C(=O)[O-])=C(C[n+]3ccc(N)c(NC(=O)Nc4ccc(CCNC(=N)N)cc4)c3)CS[C@H]12)c1nc(N)sc1Cl [(I)],MIC90,MRSA (n = 21),2 µg/mL
same,MIC90,[1],8 µg/mL
same,MIC,[2],1 to 2 µg/mL
same,MIC,Pseudomonas aeruginosa,1 to 2 µg/mL
same,Lung (L) ED−2log,[3]; [6],6.7 (L) mg/kg
same,ED−3 log,[3]; [7],11.4 mg/kg
same,ED−3 log,[4],5.2 mg/kg
same,Lung (L) ED−2log,[5]; [6],1.8 (L) mg/kg
same,ED−3 log,[5]; [7],4.1 mg/kg
same,MIC,Kpn #573,1 µg/mL
same,MIC,Pa #2545,2 µg/mL
same,MIC,MRSA #712,2 µg/mL
same,MIC,Pa #44 (ATCC27853),1 µg/mL
